Earlier results in patent US12433839B2, “Sustained release particle formulations” (Adare Pharmaceuticals USA, Inc., priority 2011, dated 2025).

Details: in vivo

With `COc1ccccc1OCC(O)CO` (stereo not shown) [guaifenesin] as the molecule, how does the typical plasma half-life read?
Its typical plasma half-life is “about one”.
